Experimental data published in US7183112B2, “Uses for anti-malarial therapeutic agents” (APT Pharmaceuticals, LLC, priority 1999, dated 2007).
Values joined by “and” are separate entries in the source; they are usually repeats but may differ in a detail not shown here. Identical values can stand only once. “Also recorded” adds a separate entry of the source.

Test system: Ascaris-sensitized sheep
Test: Antigen-induced changes in specific lung resistance (early and late responses), Examples 1-2
Assay type: in vivo
Conditions: for Specific resistance, +1 HR % / Specific resistance, +1 HR Srl: 1 h post antigen; for Specific resistance, +2 HRS % / Specific resistance, +2 HRS Srl: 2 h post antigen; for Specific resistance, P-ASC % / Specific resistance, P-ASC Srl: immediately post Ascaris antigen; for Specific resistance, P-pl/dg % (immediate) / Specific resistance, P-pl/dg Srl (immediate): immediately post drug; for Specific resistance, P-pl/dg % (just before Ag) / Specific resistance, P-pl/dg Srl (just before Ag): post drug, just before antigen; for Specific resistance, +3 HRS % / Specific resistance, +3 HRS Srl: 3 h post antigen; for Specific resistance, +4 HRS % / Specific resistance, +4 HRS Srl: 4 h post antigen; for Specific resistance, +5 HRS % / Specific resistance, +5 HRS Srl: 5 h post antigen; for Specific resistance, +7 HRS % / Specific resistance, +7 HRS Srl: 7 h post antigen; for Specific resistance, +7.5 HRS % / Specific resistance, +7.5 HRS Srl: 7.5 h post antigen; for Specific resistance, +8 HRS % / Specific resistance, +8 HRS Srl: 8 h post antigen
Method: All procedures were approved by the Mount Sinai Medical Center Animal Research Committee, which is responsible for assuring the humane care and use of experimental animals.
Measurement of Airway Mechanics: The unsedated sheep were restrained in a cart in the prone position with their heads immobilized. After topical anesthesia of the nasal passages with 2% lidocaine solution, a balloon catheter was advanced through one nostril into the lower esophagus. The animals were […] with a cuffed endotracheal tube through the other nostril using a flexible fiberoptic bronchoscope as a guide. […] Pleural pressure was estimated with the esophageal balloon catheter (filled with one ml of air) which was positioned 5–10 cm from the gastroesophageal junction. […] Once the balloon was placed, it was secured so that it remained in position for the duration of the experiment. Lateral pressure in the trachea was-measured with a sidehole catheter (inner dimension, 2.5 mm) advanced through and positioned distal to the tip of the endotracheal tube. Transpulmonary pressure, the difference between tracheal and pleural pressure, was measured with a differential pressure transducer catheter system. For the measurement of pulmonary resistance (RL), the proximal end of the endotracheal tube was connected to a pneumotachograph (Fleisch No. 1; Dyna Sciences, Inc., Blue Bell, Pa.). […] The mean of at least five breaths, free of swallowing artifact, was used to obtain RL in cm H2O/L/s. Immediately after the measurement of RL, thoracic gas volume (Vtg) was measured in a constant-volume body plethysmograph to obtain specific lung resistance (SRL=RL×Vtg) in L×cm H2O/L/s.
Aerosol Delivery Systems: Aerosols of Ascaris suum extract (diluted 20:1 with phosphate buffered saline; 82,000 PNU/ml) were generated using a disposable medical nebulizer (Raindrop^R, Puritan Bennett), which produces an aerosol with a mass median aerodynamic diameter of 3.2 μm (geometric standard deviation, 1.9) as determined by a 7 stage Andersen cascade impactor. The output from the nebulizer was directed into a plastic T-piece, one end of which was connected to the inspiratory port of a Harvard respirator. […] The aerosol was delivered at a tidal volume of 500 ml and a rate of 20 breaths per minute for 20 minutes. Each sheep was challenged with an equivalent dose of antigen (400 breaths) in the control and drug trials. Carbachol aerosols were also generated with this same nebulizer system.
At 3 to 4 days before treatment was begun, baseline airway responsiveness, to aerosol carbachol (i.e., PC400) was determined and a baseline bronchial biopsy performed. […] The animals were treated two times a day for 3 days and then, on the fourth day, at 0.5 hours before antigen challenge and again at 4 hours after challenge. […] SRL was remeasured 0.5 h after treatment (just before challenge) and the animals were then challenged with antigen. SRL was then remeasured immediately after.
On the fourth day, they received an additional treatment one-half hour prior to antigen challenge.

[1] = Example 1, aerosol 30 mg/animal (0.78 mg/kg) twice a day, Mean
[2] = Example 1, aerosol 30 mg/animal (0.78 mg/kg) twice a day, individual sheep
[3] = Example 2, aerosol 40 mg b.i.d. (2 mg/kg/day)
[4] = Example 2, aerosol 40 mg b.i.d. (2 mg/kg/day), Mean of 2 sheep
[5] = Example 2, aerosol 40 mg b.i.d. (2 mg/kg/day), individual sheep
[6] = Example 2, aerosol 40 mg b.i.d. (2 mg/kg/day), 6 h post antigen, Mean of 2 sheep
[7] = Example 2, aerosol 40 mg b.i.d. (2 mg/kg/day), 6 h post antigen, individual sheep
[8] = Example 2, aerosol 40 mg b.i.d. (2 mg/kg/day), +6 HRS, individual sheep
[9] = inhaled (nebulized), summary of animal studies

## CCN(CCO)CCCC(C)Nc1ccnc2cc(Cl)ccc12 (centres unmarked) [HCQ, hydroxychloroquine]
[1]
  Specific resistance, +1 HR %: 38%
  Specific resistance, +1 HR Srl: 1.39 L×cm H2O/L/s
  Specific resistance, +2 HRS %: 42%
  Specific resistance, +2 HRS Srl: 1.44 L×cm H2O/L/s
  Specific resistance, P-ASC %: 95%
  Specific resistance, P-ASC Srl: 1.97 L×cm H2O/L/s
  Specific resistance, P-pl/dg % (immediate): 10%
  Specific resistance, P-pl/dg Srl (immediate): 1.11 L×cm H2O/L/s
  Specific resistance, P-pl/dg % (just before Ag): 2%
  Specific resistance, P-pl/dg Srl (just before Ag): 1.03 L×cm H2O/L/s
[2]
  Specific resistance, +1 HR %: 32% and 43% and 30%
  Specific resistance, +1 HR Srl: 1.35 L×cm H2O/L/s and 1.49 L×cm H2O/L/s
  Specific resistance, +2 HRS %: 11% and 74% and 4%
  Specific resistance, +2 HRS Srl: 1.13 L×cm H2O/L/s and 1.74 L×cm H2O/L/s and 1.2 L×cm H2O/L/s
  Specific resistance, P-ASC %: 140% and 49% and 189%
  Specific resistance, P-ASC Srl: 2.45 L×cm H2O/L/s and 1.49 L×cm H2O/L/s and 3.32 L×cm H2O/L/s
  Specific resistance, P-pl/dg % (immediate): 18% and 2% and 19%
  Specific resistance, P-pl/dg Srl (immediate): 1.20 L×cm H2O/L/s and 1.02 L×cm H2O/L/s and 1.37 L×cm H2O/L/s
  Specific resistance, P-pl/dg % (just before Ag): 9% and −5% and −2%
  Specific resistance, P-pl/dg Srl (just before Ag): 1.11 L×cm H2O/L/s and 0.95 L×cm H2O/L/s and 1.13 L×cm H2O/L/s
[3]
  effect on acute reactions: not inhibited
  effect on late phase asthmatic reactions: virtually completely blocked
[4]
  Specific resistance, +1 HR %: 132%
  Specific resistance, +1 HR Srl: 2.43 L×cm H2O/L/s
  Specific resistance, +2 HRS %: 69%
  Specific resistance, +2 HRS Srl: 1.74 L×cm H2O/L/s
  Specific resistance, +3 HRS %: 50%
  Specific resistance, +3 HRS Srl: 1.58 L×cm H2O/L/s
  Specific resistance, +4 HRS %: 19%
  Specific resistance, +4 HRS Srl: 1.26 L×cm H2O/L/s
  Specific resistance, +5 HRS %: 17%
  Specific resistance, +5 HRS Srl: 1.23 L×cm H2O/L/s
  Specific resistance, +7 HRS %: 16%
  Specific resistance, +7 HRS Srl: 1.23 L×cm H2O/L/s
  Specific resistance, +7.5 HRS %: 35%
  Specific resistance, +7.5 HRS Srl: 1.42 L×cm H2O/L/s
  Specific resistance, +8 HRS %: 20%
  Specific resistance, +8 HRS Srl: 1.27 L×cm H2O/L/s
  Specific resistance, P-ASC %: 238%
  Specific resistance, P-ASC Srl: 3.58 L×cm H2O/L/s
  Specific resistance, P-pl/dg % (immediate): 3%
  Specific resistance, P-pl/dg Srl (immediate): 1.08 L×cm H2O/L/s
  Specific resistance, P-pl/dg % (just before Ag): 1%
  Specific resistance, P-pl/dg Srl (just before Ag): 1.07 L×cm H2O/L/s
[5]
  Specific resistance, +1 HR %: 171% and 93%
  Specific resistance, +1 HR Srl: 2.76 L×cm H2O/L/s and 2.10 L×cm H2O/L/s
  Specific resistance, +2 HRS %: 102% and 36%
  Specific resistance, +2 HRS Srl: 2.06 L×cm H2O/L/s and 1.48 L×cm H2O/L/s
  Specific resistance, +3 HRS %: 54% and 46%
  Specific resistance, +3 HRS Srl: 1.57 L×cm H2O/L/s and 1.59 L×cm H2O/L/s
  Specific resistance, +4 HRS %: 10% and 28%
  Specific resistance, +4 HRS Srl: 1.12 L×cm H2O/L/s and 1.39 L×cm H2O/L/s
  Specific resistance, +5 HRS %: 36% and −2%
  Specific resistance, +5 HRS Srl: 1.39 L×cm H2O/L/s and 1.07 L×cm H2O/L/s
  Specific resistance, +7 HRS %: 20% and 13%
  Specific resistance, +7 HRS Srl: 1.22 L×cm H2O/L/s and 1.23 L×cm H2O/L/s
  Specific resistance, +7.5 HRS %: 50% and 19%
  Specific resistance, +7.5 HRS Srl: 1.53 L×cm H2O/L/s and 1.30 L×cm H2O/L/s
  Specific resistance, +8 HRS %: 22% and 18%
  Specific resistance, +8 HRS Srl: 1.24 L×cm H2O/L/s and 1.29 L×cm H2O/L/s
  Specific resistance, P-ASC %: 196% and 280%
  Specific resistance, P-ASC Srl: 3.02 L×cm H2O/L/s and 4.14 L×cm H2O/L/s
  Specific resistance, P-pl/dg % (immediate): 13% and −7%
  Specific resistance, P-pl/dg Srl (immediate): 1.15 L×cm H2O/L/s and 1.01 L×cm H2O/L/s
  Specific resistance, P-pl/dg % (just before Ag): −6% and 7%%
  Specific resistance, P-pl/dg Srl (just before Ag): 0.96 L×cm H2O/L/s and 1.17 L×cm H2O/L/s
[6]
  Specific resistance, +6 HRS %: 18%
  Specific resistance, +6 HRS Srl: 1.24 L×cm H2O/L/s
[7]
  Specific resistance, +6 HRS %: 20% and 16%
  Specific resistance, +6 HRS Srl: 1.22 L×cm H2O/L/s and 1.26 L×cm H2O/L/s
Example 2, aerosol 40 mg b.i.d. (2 mg/kg/day), +6 HRS, Mean of 2 sheep
  Specific resistance, +6 HRS Srl: 1.21 L×cm H2O/L/s
[8]
  Specific resistance, +6 HRS %: 8% and 21%
  Specific resistance, +6 HRS Srl: 1.10 L×cm H2O/L/s and 1.32 L×cm H2O/L/s
Example 2, aerosol 40 mg b.i.d. (2 mg/kg/day), second +6 HRS column (text: at 6.5 hours), Mean of 2 sheep
  Specific resistance, +6 HRS %: 14%
aerosol, sheep, specific resistance pre- and immediately following application
  irritant effects / tolerability of aerosolized HCQ (airway resistance after inhalation): well tolerated; also recorded: does not cause any major irritant effects
[9]
  effect on immediate allergic-mediated bronchostrictive responses: partially blocks
  effect on late-phase responses (four to 12 hours post-antigen challenge): virtually eliminates
